Reference: patent US9049864B2, “Pyridazinone herbicidal compounds” (Syngenta Limited, priority 2012, dated 2015)

What was measured:
Test in all cases: Post-emergence herbicidal glasshouse test, percentage damage to the plant
Assay type in all cases: in vivo
[1] = test system: Alopecurus myosuroides (ALOMY)
Protocol: (§1) Seeds of a variety of test species are sown in standard soil in pots:—Solanum nigrum (SOLNI), Amaranthus retoflexus (AMARE), Setaria faberi (SETFA), Alopecurus myosuroides (ALOMY), Echinochloa crus-galli (ECHCG), Ipomoea hederacea (IPOHE). After 8 days cultivation (post-emergence) under controlled conditions in a glasshouse (at 24/16° C., day/night; 14 hours light; 65% humidity), the plants are sprayed with an aqueous spray solution derived from the formulation of the technical active ingredient in acetone/water (50:50) solution containing 0.5% Tween 20 (polyoxyethelyene sorbitan monolaurate, CAS RN 9005-64-5). Compounds are applied at 1000 g/ha. The test plants are then grown in a glasshouse under controlled conditions in a glasshouse (at 24/16° C., day/night; 14 hours light; 65% humidity) and watered twice daily. After 13 days, the test is evaluated for the percentage damage caused to the plant. The biological activities are shown in the following table on a five point scale (5=80-100%; 4=60-79%; 3=40-59%; 2=20-39%; 1=0-19%). A comparative experiment is conducted to compare the biological efficacy of a compound of the present invention with those of WO 2011/045271. The test is performed as outlined above using the following compounds. Three different application rates are employed (250 g/ha, 500 g/ha and 1000 g/ha).

[2] = test system: Amaranthus retoflexus (AMARE)
Protocol: as §1

[3] = test system: Echinochloa crus-galli (ECHCG)
Protocol: as §1

[4] = test system: Ipomoea hederacea (IPOHE)
Protocol: as §1

Setaria faberi (SETFA) = test system: Setaria faberi (SETFA)
Protocol: as §1

Solanum nigrum (SOLNI) = test system: Solanum nigrum (SOLNI)
Protocol: as §1

[5] = post-emergence, 1000 g/ha, evaluated after 13 days
[6] = comparative experiment, rate 250 g/ha
[7] = comparative experiment, rate 500 g/ha
[8] = comparative experiment, rate 1000 g/ha

Row | Compound | POST Application ALOMY, percentage damage (five point scale) [1, 5] | POST Application AMARE, percentage damage (five point scale) [2, 5] | POST Application ECHCG, percentage damage (five point scale) [3, 5] | POST Application IPOHE, percentage damage (five point scale) [4, 5] | POST Application SETFA, percentage damage (five point scale) (Setaria faberi (SETFA); [5]) | POST Application SOLNI, percentage damage (five point scale) (Solanum nigrum (SOLNI); [5]) | other results
1 | C=CCC1=NN(C)C(=O)C(n2c(Cl)c(Cl)c3ccccc32)C1=O (stereo not drawn) [Compound 2.025] | 1 (1=0-19%) | 2 (2=20-39%) | 2 (2=20-39%) | 5 (5=80-100%) | 2 (2=20-39%) | 5 (5=80-100%) | 
2 | CC1=NN(C)C(=O)C(n2ccc3ccccc32)C1=O (stereo not drawn) [Compound 1.002] | 1 (1=0-19%) | 4 (4=60-79%) | 1 (1=0-19%) | 4 (4=60-79%) | 1 (1=0-19%) | 5 (5=80-100%) | 
3 | CCCCC1=NN(C)C(=O)C(n2c(Cl)c(Cl)c3ccccc32)C1=O (stereo not drawn) [Compound 2.010] | 1 (1=0-19%) | 3 (3=40-59%) | 1 (1=0-19%) | 3 (3=40-59%) | 1 (1=0-19%) | 4 (4=60-79%) | 
4 | Cc1nn(C)c(=O)c(-n2c(Cl)c(Cl)c3ccccc32)c1OC(=O)OCC(C)C [Compound 3.010] | 1 (1=0-19%) | 5 (5=80-100%) | 3 (3=40-59%) | 5 (5=80-100%) | 1 (1=0-19%) | 5 (5=80-100%) | 
5 | CSC1=NN(C)C(=O)C(n2c(Cl)c(Cl)c3ccccc32)C1=O (stereo not drawn) [Compound 2.003, 4-(2,3-dichloroindol-1-yl)-2-methyl-6-methylsulfanyl-pyridazine-3,5-dione] | 1 (1=0-19%) | 2 (2=20-39%) | 1 (1=0-19%) | 4 (4=60-79%) | 1 (1=0-19%) | 2 (2=20-39%) | 
6 | Cc1cc(Cl)nn1C1C(=O)C=NN(C)C1=O (stereo not drawn) [Compound B, reference compound] |  |  |  |  |  |  | POST Application ALOMY, percentage damage (five point scale) [1, 6]: 1 (1=0-19%); POST Application ALOMY, percentage damage (five point scale) [1, 7]: 1 (1=0-19%); POST Application ALOMY, percentage damage (five point scale) [1, 8]: 2 (2=20-39%); POST Application AMARE, percentage damage (five point scale) [2, 6]: 2 (2=20-39%); POST Application AMARE, percentage damage (five point scale) [2, 7]: 3 (3=40-59%); POST Application AMARE, percentage damage (five point scale) [2, 8]: 4 (4=60-79%); POST Application ECHCG, percentage damage (five point scale) [3, 6]: 1 (1=0-19%); POST Application ECHCG, percentage damage (five point scale) [3, 7]: 1 (1=0-19%); POST Application ECHCG, percentage damage (five point scale) [3, 8]: 2 (2=20-39%); POST Application IPOHE, percentage damage (five point scale) [4, 6]: 1 (1=0-19%); POST Application IPOHE, percentage damage (five point scale) [4, 7]: 2 (2=20-39%); POST Application IPOHE, percentage damage (five point scale) [4, 8]: 5 (5=80-100%); POST Application SETFA, percentage damage (five point scale) (Setaria faberi (SETFA); [6]): 1 (1=0-19%); POST Application SETFA, percentage damage (five point scale) (Setaria faberi (SETFA); [7]): 1 (1=0-19%); POST Application SETFA, percentage damage (five point scale) (Setaria faberi (SETFA); [8]): 1 (1=0-19%); POST Application SOLNI, percentage damage (five point scale) (Solanum nigrum (SOLNI); [6]): 2 (2=20-39%); POST Application SOLNI, percentage damage (five point scale) (Solanum nigrum (SOLNI); [7]): 3 (3=40-59%); POST Application SOLNI, percentage damage (five point scale) (Solanum nigrum (SOLNI); [8]): 4 (4=60-79%)
7 | CN1N=CC(=O)C(n2ccc3cc(Br)ccc32)C1=O (stereo not drawn) [Compound 1.004] | 1 (1=0-19%) | 1 (1=0-19%) | 1 (1=0-19%) | 1 (1=0-19%) | 1 (1=0-19%) | 4 (4=60-79%) | 
8 | COC1=NN(C)C(=O)C(n2c(Cl)c(Cl)c3ccccc32)C1=O (stereo not drawn) [Compound 2.022] | 1 (1=0-19%) | 4 (4=60-79%) | 1 (1=0-19%) | 5 (5=80-100%) | 1 (1=0-19%) | 5 (5=80-100%) | 
9 | CN1N=CC(=O)C(n2cc(Cl)c3ccccc32)C1=O (stereo not drawn) [Compound 1.012, 4-(3-Chloro-indol-1-yl)-2-methyl-2H-pyridazine-3,5-dione] | 1 (1=0-19%) | 5 (5=80-100%) | 2 (2=20-39%) | 5 (5=80-100%) | 5 (5=80-100%) | 5 (5=80-100%) | 
